Measurements as given in patent US20250313807A1, “SYSTEMS AND METHODS FOR CHARACTERIZATION OF POLYCYSTIC KIDNEY DISEASE” (University of Washington, priority 2022, published 2025).

Experiments:
PKD organoids [1] = tested on: PKD organoids
Procedure: The low height of the channels in the flow devices enabled continuous time lapse imaging of fluorescent molecules without high background fluorescence.
Organoid perfusion in microfluidic chip. Ibidi μ-Slide VI0.4 were coated with 3.0% Reduced Growth Factor Geltrex (Life Technologies) and left at 37° C. overnight to solidify. Kidney organoids (21-40 d) were picked from adhered culture plates, pipetted into the slide channels (2-3 per channel) with RB, and left for 24 hrs at 37° C. to attach. Organoids were distributed randomly within the channel. For the fluidic condition, 60 mL syringes filled with RB were attached to channels using clear tubing (Cole-Parmer, 0.02″ ID, 0.083″ OD). A clamp was used to close off the tubing, and the media in the syringe was changed to 25 mL RB+36.5 μM 2-NBD-Glucose fluorescent glucose (Abcam ab146200). […]
Image/video collection. […] Experiments in microfluidic devices were recorded for 6 hours. […] Cyst growth rate in microfluidic devices was therefore calculated on an individual basis, when each cyst reached its maximal volume, which varied for each sample from 1 hour to 5 hours after the start of the experiment. For longer-term experiments conducted in static 96-well cultures, organoids were imaged at regular intervals (typically 24 hours) and analyzed at the endpoint indicated in the figure graphs. […]

[2] = tested on: PKD cysts of Pkd1^RC/RC mice; conditions: systemic perfusion with PBS+1 mM NBD-Glucose, kidney tissue sections
Procedure: To determine whether PKD cysts absorbed glucose in vivo, a methodology was devised to inject mice with NBD glucose and immediately retrieve their kidneys (FIG. 6D).
For perfusion experiments, NBD Glucose was freshly dissolved in PBS to a concentration of 1 mM. Freshly sacrificed Pkd1^RC/RC mice (>8 months old) were incised through the chest and nicked at the vena cava with a 27-gauge needle. Keeping pressure on the vena cava, mice were perfused systemically through the heart with a syringe containing 10 mL of PBS, followed by a second syringe containing 5 mL of either PBS alone (control) or PBS+1 mM NBD-Glucose. Kidneys were harvested immediately and embedded fresh without fixation or sucrose equilibration in OCT. Cryostat-cut mouse kidney sections (20 μm) were mounted in OCT and imaged on a confocal microscope with 10× objective. […] Mice were maintained on a standard diet under standard pathogen-free housing conditions, with food and water freely available.

PKD organoids [3] = experiment: live/dead staining (calcein AM/propidium iodide) of cystic organoids; format: cell-based, human; conditions: 24 and 48 hours of treatment
PKD organoid cysts = experiment: cyst expansion in PKD organoids under static conditions (96-well plate); format: cell-based, human
Procedure: To test functionally whether cyst growth is linked to glucose transport in human organoids, cyst expansion was quantified in increasing concentrations of D-glucose under static conditions (96-well plate).
To test this hypothesis, the effects of pharmacological transport inhibitors on cysts were examined in static conditions.
Kidney organoid differentiation. […] 5,000-20,000 hPSCs per well were placed in each 24-well plate pre-coated with 300 μL of DMEM-F12 containing 0.2 mg/mL Matrigel and sandwiched the following day with 0.2 mg/mL Matrigel in mTeSR1 ([sequence] Technologies, Vancouver) to produce scattered, isolated spheroid colonies. 48 hrs after sandwiching, hPSC spheroids were treated with 12 μM CHIR99021 (Tocris Bioscience) for 36 h, then changed to RB (Advanced RPMI+1× Glutamax+1×B27 Supplement, all from Thermo Fisher Scientific) after 48 hours, and replaced with fresh RB every 3 days thereafter.
Image/video collection. Image collection was performed on a Nikon Ti Live-Cell Inverted Widefield microscope inside of an incubated live imaging chamber supplemented with 5% carbon dioxide. […] For longer-term experiments conducted in static 96-well cultures, organoids were imaged at regular intervals (typically 24 hours) and analyzed at the endpoint indicated in the figure graphs. Phase contrast and GFP (200 ms exposure) images were taken every 5 minutes for a maximum of 12 hours. […]

O=C[C@H](Nc1ccc([N+](=O)[O-])c2nonc12)[C@@H](O)[C@H](O)[C@H](O)CO [NBD glucose, 2-(N-(7-Nitrobenz-2-oxa-1,3-diazol-4-yl)Amino)-2-Deoxyglucose]
absorption into organoid proximal and distal tubules (immunofluorescence) (PKD organoids [1]; organoid tubules): absorbed into and accumulated inside organoid proximal and distal tubules | washout from loaded PKD organoids (PKD organoids [1]; switched into media containing only unlabeled glucose, continuous flow): disappeared rapidly | uptake by cyst-lining epithelia and surrounding interstitium [2]: readily took up NBD glucose

O=C(CCc1ccc(O)cc1)c1c(O)cc(O)cc1O [Phloretin, phloretin]
toxicity by live-dead staining (PKD organoids [3]): no significant toxicity | decrease of cyst size (PKD organoid cysts; 800 μM phloretin, 15 mM glucose): 77%

CCCN(CCC)S(=O)(=O)c1ccc(C(=O)O)cc1 [probenecid]
effect on cyst growth (PKD organoid cysts; 15 mM D-Glucose, non-toxic doses): no effect on cyst growth
